In ChEMBL document CHEMBL1134604, “2-Alkynyl-8-aryl-9-methyladenines as novel adenosine receptor antagonists: their synthesis and structure-activity relationships toward hepatic glucose production induced via agonism of the A(2B) receptor” (J Med Chem, 2001):

Key:
Adenosine receptor A2b [1] = biological target: T1, Adenosine receptor A2b (Homo sapiens, UniProt P29275); assay: Inhibitory activity on NECA-induced cyclic-AMP accumulation in CHO-K1 cells expressing human Adenosine A2B receptor; type: functional, cell-based
T1 sequence (P29275 whole entry): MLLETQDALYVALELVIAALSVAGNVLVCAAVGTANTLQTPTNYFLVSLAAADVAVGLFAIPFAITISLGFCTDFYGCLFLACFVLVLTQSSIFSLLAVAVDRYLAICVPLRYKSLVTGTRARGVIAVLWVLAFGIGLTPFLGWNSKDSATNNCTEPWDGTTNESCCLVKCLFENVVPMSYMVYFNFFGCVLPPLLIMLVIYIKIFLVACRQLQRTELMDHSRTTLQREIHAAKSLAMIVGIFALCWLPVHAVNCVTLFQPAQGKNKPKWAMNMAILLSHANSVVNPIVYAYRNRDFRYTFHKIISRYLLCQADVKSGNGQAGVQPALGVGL

Adenosine receptor A2b [2] = biological target: T2, Adenosine receptor A2b (Rattus norvegicus, UniProt P29276); assay: Inhibitory activity on N-ethylcarboxamidoadenosine (NECA)-induced glucose production in primary cultured rat hepatocytes; type: functional, cell-based, Hepatocyte
T2 sequence (P29276 whole entry): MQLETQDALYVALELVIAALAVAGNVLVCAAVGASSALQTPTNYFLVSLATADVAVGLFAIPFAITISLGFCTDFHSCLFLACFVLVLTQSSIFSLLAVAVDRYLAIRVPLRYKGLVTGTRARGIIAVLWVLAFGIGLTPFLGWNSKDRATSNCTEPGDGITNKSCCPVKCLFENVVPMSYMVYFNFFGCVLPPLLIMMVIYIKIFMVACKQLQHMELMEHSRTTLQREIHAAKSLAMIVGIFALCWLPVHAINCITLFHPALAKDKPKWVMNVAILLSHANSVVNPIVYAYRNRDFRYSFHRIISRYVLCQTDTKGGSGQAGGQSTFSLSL

Adenosine receptor A3 [3] = biological target: T3, Adenosine receptor A3 (Homo sapiens, UniProt P0DMS8); assay: Inhibitory activity against cyclic AMP production in human adenosine A3 receptor assay
T3 sequence (P0DMS8 whole entry): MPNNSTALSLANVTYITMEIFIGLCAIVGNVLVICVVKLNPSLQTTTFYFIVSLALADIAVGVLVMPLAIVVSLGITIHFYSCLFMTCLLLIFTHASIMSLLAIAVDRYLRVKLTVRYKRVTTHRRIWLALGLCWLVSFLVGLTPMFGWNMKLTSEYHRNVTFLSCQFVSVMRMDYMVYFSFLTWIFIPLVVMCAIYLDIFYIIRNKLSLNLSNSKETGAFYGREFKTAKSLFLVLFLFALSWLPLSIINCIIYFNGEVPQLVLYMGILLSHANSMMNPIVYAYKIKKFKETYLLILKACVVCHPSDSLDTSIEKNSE

Adenosine receptor A2b [4] = biological target: T1, Adenosine receptor A2b; assay: Inhibitory activity against cyclic AMP production in human Adenosine A2B receptor assay
[5] = biological target: Adenosine receptor A2a (Rattus norvegicus) (UniProt P30543); assay: Inhibitory activity against cyclic AMP production in rat Adenosine A2A receptor assay
Sequence of Adenosine receptor A2a (Rattus norvegicus) (P30543 whole entry, looked up): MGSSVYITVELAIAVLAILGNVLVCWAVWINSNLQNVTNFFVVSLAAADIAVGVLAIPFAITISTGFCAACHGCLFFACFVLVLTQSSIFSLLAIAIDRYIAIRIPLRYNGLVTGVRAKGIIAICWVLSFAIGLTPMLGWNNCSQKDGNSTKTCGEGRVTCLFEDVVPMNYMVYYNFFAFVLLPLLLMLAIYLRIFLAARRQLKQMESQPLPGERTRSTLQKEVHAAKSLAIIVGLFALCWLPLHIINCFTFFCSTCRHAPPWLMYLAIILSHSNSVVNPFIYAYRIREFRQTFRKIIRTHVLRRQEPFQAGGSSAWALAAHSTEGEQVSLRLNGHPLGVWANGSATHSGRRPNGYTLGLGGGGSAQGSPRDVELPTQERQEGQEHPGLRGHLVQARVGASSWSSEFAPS

Adenosine receptor A1 [6] = biological target: T4, Adenosine receptor A1 (Homo sapiens, UniProt P30542); assay: Binding Affinity towards Adenosine A1 receptor expressed in CHO-K1 cells versus [3H]CCPA; type: cell-based
T4 sequence (P30542 whole entry): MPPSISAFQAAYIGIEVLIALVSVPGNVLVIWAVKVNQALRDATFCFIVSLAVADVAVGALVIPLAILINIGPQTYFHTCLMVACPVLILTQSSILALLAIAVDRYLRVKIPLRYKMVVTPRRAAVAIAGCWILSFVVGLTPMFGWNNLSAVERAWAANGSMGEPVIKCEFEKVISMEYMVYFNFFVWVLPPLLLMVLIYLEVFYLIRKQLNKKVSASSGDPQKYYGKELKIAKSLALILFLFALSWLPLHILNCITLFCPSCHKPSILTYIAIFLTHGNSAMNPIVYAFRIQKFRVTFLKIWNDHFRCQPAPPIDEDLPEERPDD

Adenosine receptor A3 [7] = biological target: T3, Adenosine receptor A3; assay: Binding affinity towards adenosine A3 receptor expressed in HEK293 cells versus [125I]AB-MECA; type: cell-based
Adenosine receptor A2a [8] = biological target: T5, Adenosine receptor A2a (Homo sapiens, UniProt P29274); assay: Binding Affinity towards Adenosine A2A receptor expressed in HEK293 cells versus [3H]CGS-21680; type: cell-based
T5 sequence (P29274 whole entry): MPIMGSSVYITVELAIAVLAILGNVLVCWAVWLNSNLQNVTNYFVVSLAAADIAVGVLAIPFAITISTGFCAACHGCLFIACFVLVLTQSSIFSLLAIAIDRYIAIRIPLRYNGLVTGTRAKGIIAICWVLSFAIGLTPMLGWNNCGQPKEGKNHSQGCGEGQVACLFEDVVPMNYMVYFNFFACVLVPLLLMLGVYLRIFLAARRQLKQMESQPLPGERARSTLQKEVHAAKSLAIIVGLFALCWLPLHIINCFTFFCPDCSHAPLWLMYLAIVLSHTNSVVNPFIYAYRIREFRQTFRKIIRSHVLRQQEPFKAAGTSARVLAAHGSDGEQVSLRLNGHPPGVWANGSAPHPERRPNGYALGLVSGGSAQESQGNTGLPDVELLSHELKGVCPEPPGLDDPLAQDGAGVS

Adenosine receptor A1 [9] = biological target: T6, Adenosine receptor A1 (Rattus norvegicus, UniProt P25099); assay: Inhibitory activity against cyclic AMP production in rat Adenosine A1 receptor assay
T6 sequence (P25099 whole entry): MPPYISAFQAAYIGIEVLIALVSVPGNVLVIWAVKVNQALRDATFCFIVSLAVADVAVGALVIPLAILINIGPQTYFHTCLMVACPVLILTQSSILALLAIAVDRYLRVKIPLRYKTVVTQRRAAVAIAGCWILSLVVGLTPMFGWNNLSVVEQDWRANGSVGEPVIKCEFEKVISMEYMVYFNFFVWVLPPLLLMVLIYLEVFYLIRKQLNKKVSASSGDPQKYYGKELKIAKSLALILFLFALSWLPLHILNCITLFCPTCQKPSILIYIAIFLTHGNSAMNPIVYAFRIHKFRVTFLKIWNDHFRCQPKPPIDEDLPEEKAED

Adenosine receptor A2a [10] = biological target: T5, Adenosine receptor A2a; assay: Binding Affinity for adenosine A2A receptor expressed in HEK293 cells compared to [3H]CGS-21680; type: cell-based

Compound | IC50 (Adenosine receptor A2b [1]) [µM] | IC50 (Adenosine receptor A2b [2]) [µM] | Ki (Adenosine receptor A1 [6]) [µM] | further results
Cn1c(-c2ccc(Cl)cc2)nc2c(N)nc(C#CC3(O)CCCCC3)nc21 | 0.5 | 6.3 |  | 
Cn1c(-c2ccc(F)cc2)nc2c(N)nc(C#CC3(O)CCCCC3)nc21 | 0.16 | 1.2 |  | 
Cn1c(-c2cccc(F)c2)nc2c(N)ncnc21 |  | 5.3 |  | 
Cn1c(=O)c2[nH]c(-c3ccccc3)nc2n(C)c1=O [8-PHENYL THEOPHYLLINE] | 0.21 | 1.1 |  | IC50 (Adenosine receptor A3 [3]): 1.25 µM; IC50 (Adenosine receptor A2b [4]): 0.21 µM; IC50 [5]: 0.454 µM
Cn1c(-c2ccccc2)nc2c(N)nc(C#CC3(O)CCCCC3)nc21 |  | 0.76 |  | 
Cn1c(-c2cccc(F)c2)nc2c(N)nc(C#CC3(O)CCCC3)nc21 | 0.063 | 0.42 | 0.02 | Ki (Adenosine receptor A3 [7]): 1.1 µM
COc1cccc(-c2nc3c(N)nc(C#CC4(O)CCCCC4)nc3n2C)c1 |  | 1.6 |  | 
Cn1c(-c2cccc(F)c2)nc2c(N)nc(C#CC3CCCC3)nc21 |  | 0.72 |  | 
Cn1c(-c2ccco2)nc2c(N)nc(C#CC3(O)CCCCC3)nc21 | 0.014 | 0.22 | 0.025 | Ki (Adenosine receptor A2a [8]): 0.011 µM
Cn1c(-c2cccc(F)c2)nc2c(N)nc(C#CC(C)(C)O)nc21 | 0.15 | 0.51 | 0.03 | Ki (Adenosine receptor A3 [7]): 2.1 µM; Ki (Adenosine receptor A2a [8]): 0.0091 µM
Cn1c(-c2cccc(C(F)(F)F)c2)nc2c(N)nc(C#CC3(O)CCCCC3)nc21 | 5.6 | > 10 |  | 
COc1ccc(-c2nc3c(N)nc(C#CC4(O)CCCCC4)nc3n2C)cc1F |  | > 10 |  | 
Cn1cnc2c(N)nc(C#CC3(O)CCCCC3)nc21 |  | 4.4 |  | 
CCCn1c(=O)c2c(nc(/C=C/c3ccc(OC)c(OC)c3)n2C)n(CCC)c1=O | 1.5 |  | > 10 | IC50 (Adenosine receptor A1 [9]): 0.062 µM; Ki (Adenosine receptor A3 [7]): 2.5 µM
Cn1c(-c2ccccn2)nc2c(N)nc(C#CC3(O)CCCCC3)nc21 |  | 1.3 |  | 
COC(=O)C1=C2C=CN(C)C=C2c2nc(-c3ccccc3)nn2C1 | 3 | > 10 | > 10 | IC50 (Adenosine receptor A2b [4]): 3 µM; Ki (Adenosine receptor A2a [10]): > 10 µM
Cn1c(-c2cccc(C#N)c2)nc2c(N)nc(C#CC3(O)CCCCC3)nc21 | 0.072 | 0.41 | 0.13 | Ki (Adenosine receptor A2a [8]): 0.013 µM
O=C(/C=C/c1c(-c2ccccc2)nn2ccccc12)N1CCCC[C@@H]1CCO [FK453] |  | 8.1 | 0.018 | IC50 (Adenosine receptor A1 [9]): 0.0172 µM; Ki (Adenosine receptor A3 [7]): 2.8 µM
Cc1cccc(-c2nc3c(N)nc(C#CC4(O)CCCCC4)nc3n2C)c1 |  | 0.97 |  | 
CCC(O)(C#Cc1nc(N)c2nc(-c3cccc(F)c3)n(C)c2n1)CC | 0.14 | 0.54 | 0.029 | Ki (Adenosine receptor A3 [7]): 0.33 µM; Ki (Adenosine receptor A2a [8]): 0.013 µM
Cn1c(-c2cccc(F)c2)nc2c(N)nc(C#CC3(O)CCCCC3)nc21 | 0.023 | 0.25 | 0.014 | Ki (Adenosine receptor A3 [7]): 0.54 µM; Ki (Adenosine receptor A2a [8]): 0.016 µM
Cn1c(-c2ccccc2F)nc2c(N)nc(C#CC3(O)CCCCC3)nc21 | 0.077 | 0.44 | 0.019 | Ki (Adenosine receptor A2a [8]): 0.015 µM
Cn1c(-c2cccc(F)c2)nc2c(N)nc(C#CC3(O)CCCCCC3)nc21 | 0.049 | 0.44 | 0.027 | Ki (Adenosine receptor A2a [8]): 0.019 µM
Cn1c(-c2cccc(Cl)c2)nc2c(N)nc(C#CC3(O)CCCCC3)nc21 |  | 0.49 |  | 
Cn1c(-c2cccs2)nc2c(N)nc(C#CC3(O)CCCCC3)nc21 |  | 0.75 |  | 
